Experimental data published in patent publication US6218406A, “Farnesyl transferase inhibitors, their preparation, the pharmaceutical compositions which contain them and their use in the preparation of medicaments” (Aventis Pharma S.A., priority 1996, dated 2001).

Biological target: farnesyl transferase (Homo sapiens, UniProt P49354+P49356)
Experiment: Farnesyl transferase inhibition, [3H]-farnesylation of biotinylated K-ras C-terminal peptide (SPA assay)
Assay type: biochemical
Settings: K-Ras substrate; 60 min at 37° C.; mean of two IC50 values; read-out: In vitro inhibitory activity (K-Ras) IC50
Experimental: The farnesyl transferase activity was measured by the amount farnesylated of K-ras substrate or of substrate derived from the peptide corresponding to its C-terminal part, the farnesyl group being introduced by farnesyl pyrophosphate (FPP).
It was then brought into contact with PVT-streptavidin (Amersham)® beads and was quantified by proximity scintillation (SPA assay) between the tritium and the PVT beads, by virtue of the streptavidin/biotin interaction.
Experimentally, farnesyl transferase purified according to the appended protocol was diluted, for this assay, to a concentration such that a consumption of substrates of less than 30% was obtained.
The reaction, carried out in Optiplates 96° microtitration plates, was initiated by the enzyme and lasted sixty minutes at 37° C. It was stopped by addition of 150 μl of mixture of a blocking buffer at pH 4 composed of 0.2M H3 PO4, 1.5 mM MgCl2, 0.5% (w/v) BSA, 0.05% (w/v) sodium azide containing 200 μg of PVT-streptavidin beads.
After slow agitation for thirty minutes (in order to remove the chemiluminescence), the plates were read as [^3 H]CPM in a Top Count® (Packard) scintillation counter for microplates, where they were converted into [^3 H]DPM from a range of coloured agent attenuating the scintillation (quenching).
The percentages of inhibition were calculated with respect to an inhibitor-free control after subtraction from all the values of that of a blank which only contained the substrates and the buffer.
The IC50 values were calculated or measured, from the inhibitions obtained at nine different concentrations, with Enzfitter® or Grafit® software. The IC50 values which appear in the results are the mean of measurements and calculations of two IC50 values.

IC50	Structure (SMILES)
50 nM	C=C(C(=O)N1C[C@H]2[C@@]3(c4ccc(C)cc4)CC[C@H](c4ccccc43)[C@@]2(C(=O)NCc2cccnc2)C1)c1ccccc1OC (single isomer, unassigned) [Example 18, Dextrorotatory Enantiomer of (3aRS,4SR,9SR,9aRS)-4,9-ethano-2-[2-(2-methoxyphenyl)propenoyl]-9-(4-methylphenyl)-2,3,3a,4,9,9a-hexahydro-1H-benzo[f]isoindole-3a-N-(3-pyridylmethyl)carboxamide]
67 nM	C=C(C(=O)N1C[C@H]2[C@@]3(c4ccc(OC)cc4)CC[C@H](c4ccccc43)[C@@]2(C(=O)NCc2ccsc2)C1)c1ccccc1OC (relative stereo) [Example 80, (3aRS,4SR,9SR,9aRS)-4,9-ethano-9-(4-methoxyphenyl)-2-[2-(2-methoxyphenyl)propenoyl]-2,3,3a,4,9,9a-hexahydro-1H-benzo[f]isoindole-3a-N-(3-thienylmethyl)carboxamide]
140 nM	C=C(C(=O)N1C[C@H]2[C@@]3(c4ccc(C)cc4)CC[C@H](c4ccccc43)[C@@]2(C(=O)NCc2ccccc2)C1)c1ccccc1OC (relative stereo) [Example 13, (3aRS,4SR, 9SR,9aRS)-3a-N-benzylcarbamoyl-4,9-ethano-2-[2-(2-methoxyphenyl)propenoyl]-9-(4-methylphenyl)-2,3,3a,4,9,9a-hexahydro-1H-benzo[f]isoindole]
558 nM	C=C(C(=O)N1C[C@@H]2[C@@]3(c4c[nH]c5ccccc45)CC[C@@H](c4ccccc43)[C@]2(C(=O)OC)C1)c1ccccc1OC (racemic) [Example 55, methyl (3aRS,4SR,9SR,9aRS)-4,9-ethano-2-[2-(2-methoxyphenyl)propenoyl]-9-(3-indolyl)-2,3,3a,4,9,9a-hexahydro-1H-benzo[f]isoindole-3a-carboxylate]
181 nM	C=C(C(=O)N1C[C@@H]2[C@]3(c4ccc5ccccc5c4)CC[C@@H](c4ccccc43)[C@]2(C(=O)OC)C1)c1ccccc1OC (racemic) [Example 45, methyl (3aRS,4SR,9SR,9aRS)-4,9-ethano-2-[2-(2-methoxyphenyl)propenoyl]-9-(2-naphthyl)-2,3,3a,4,9,9a-hexahydro-1H-benzo[f]isoindole-3a-carboxylate]
50 nM	COc1ccccc1CC(=O)N1C[C@H]2[C@@]3(c4ccc(SC)cc4)CC[C@H](c4ccccc43)[C@@]2(C(=O)O)C1 (relative stereo) [Example 7, (3aRS,4SR,9SR,9aRS)-4,9-ethano-2-[(2-methoxyphenyl)acetyl]-9-(4-methylsulphanylphenyl)-2,3,3a,4,9,9a-hexahydro-1H-benzo[f]isoindole-3a-carboxylic Acid]
45 nM	C=C(C(=O)N1C[C@@H]2[C@@]3(c4ccc(C)cc4)CC[C@@H](c4ccccc43)[C@]2(C(=O)O)C1)c1ccccc1OC (racemic) [Example 2, (3aRS,4SR,9RS,9aRS)-4,9-ethano-2-[2-(2-methoxyphenyl)propenoyl]-9-(4-methylphenyl)-2,3,3a,4,9,9a-hexahydro-1H-benzo[f]isoindole-3a-carboxylic Acid]
204 nM	C=C(C(=O)N1C[C@H]2[C@@]3(c4ccc(OC)cc4)CC[C@H](c4ccccc43)[C@@]2(C(=O)NNc2ccccc2)C1)c1ccccc1OC (relative stereo) [Example 77, (3aRS,4SR,9SR,9aRS)-4,9-ethano-9-(4-methoxyphenyl)-2-[2-(2-methoxyphenyl)propenoyl]-2,3,3a,4,9,9a-hexahydro-1H-benzo[f]isoindole-3a-N'-phenylcarbohydrazide]
78 nM	C=C(C(=O)N1C[C@@H]2[C@]3(c4ccc(OC)c(C)c4)CC[C@@H](c4ccccc43)[C@]2(C(=O)O)C1)c1ccccc1OC (racemic) [Example 54, (3aRS,4SR,9SR,9aRS)-4,9-ethano-2-[2-(2-methoxyphenyl)propenoyl]-9-(4-methoxy-3-methylphenyl)-2,3,3a,4,9,9a-hexahydro-1H-benzo[f]isoindole-3a-carboxylic Acid]
131 nM	C=C(C(=O)N1C[C@H]2[C@@]3(c4ccc(C)cc4)CC[C@H](c4ccccc43)[C@@]2(C(=O)NN(C)C)C1)c1ccccc1OC (relative stereo) [Example 22, (3aRS,4SR,9SR,9aRS)-4,9-ethano-2-[2-(2-methoxyphenyl)propenoyl]-9-(4-methylphenyl)-2,3,3a,4,9,9a-hexahydro-1H-benzo[f]isoindole-3a-N',N'-dimethylcarbohydrazide]
101 nM	C=C(C(=O)N1C[C@@H]2[C@]3(c4ccc5c(c4)OCCO5)CC[C@@H](c4ccccc43)[C@]2(C(=O)OC)C1)c1ccccc1OC (racemic) [Example 31, methyl (3aRS,4SR,9SR,9aRS)-9-(2,3-dihydro-1,4-benzodioxin-6-yl)-4,9-ethano-2-[2-(2-methoxyphenyl)propenoyl]-2,3,3a,4,9,9a-hexahydro-1H-benzo[f]isoindole-3a-carboxylate]
210 nM	C=C(C(=O)N1C[C@@H]2[C@]3(c4ccc(C)cc4)CC[C@@H](c4ccccc43)[C@]2(C(=O)NOCc2ccccc2)C1)c1ccccc1OC (racemic) [Example 14, benzyl (3aRS,4SR,9SR,9aRS)-4,9-ethano-2-[2-(2-methoxyphenyl)propenoyl]-9-(4-methylphenyl)-2,3,3a,4,9,9a-hexahydro-1H-benzo[f]isoindole-3a-hydroxamate]
20 nM	C=C(C(=O)N1C[C@@H]2[C@]3(c4ccc(Cl)cc4)CC[C@@H](c4ccccc43)[C@]2(C(=O)O)C1)c1ccccc1OC (racemic) [Example 53, (3aRS,4SR,9SR,9aRS)-9-(4-chlorophenyl)-4,9-ethano-2-[2-(2-methoxyphenyl)propenoyl]-2,3,3a,4,9,9a-hexahydro-1H-benzo[f]isoindole-3a-carboxylic Acid]
181 nM	C=C(C(=O)N1C[C@@H]2[C@]3(c4ccc(Cl)cc4)CC[C@@H](c4ccccc43)[C@]2(C(=O)OC)C1)c1ccccc1OC (racemic) [Example 52, methyl (3aRS,4SR,9SR,9aRS)-9-(4-chlorophenyl)-4,9-ethano-2-[2-(2-methoxyphenyl)-propenoyl]-2,3,3a,4,9,9a-hexahydro-1H-benzo[f]isoindole-3a-carboxylate]
83 nM	C=C(C(=O)N1C[C@@H]2[C@]3(c4ccc(C(F)(F)F)cc4)CC[C@@H](c4ccccc43)[C@]2(C(=O)O)C1)c1ccccc1OC (racemic) [Example 40, (3aRS,4SR,9SR,9aRS)-4,9-ethano-2-[2-(2-methoxyphenyl)propenoyl]-9-[4-(trifluoromethyl)phenyl]-2,3,3a,4,9,9a-hexahydro-1H-benzo[f]isoindole-3a-carboxylic Acid]
53 nM	C=C(C(=O)N1C[C@@H]2[C@]3(c4cccc(C)c4)CC[C@@H](c4ccccc43)[C@]2(C(=O)O)C1)c1ccccc1OC (racemic) [Example 69, (3aRS,4SR,9SR,9aRS)-4,9-ethano-2-[2-(2-methoxyphenyl)propenoyl]-9-(3-methylphenyl)-2,3,3a,4,9,9a-hexahydro-1H-benzo[f]isoindole-3a-carboxylic Acid]
84 nM	C=C(C(=O)N1C[C@@H]2[C@]3(c4ccc5c(c4)OCCO5)CC[C@@H](c4ccccc43)[C@]2(C(=O)NCc2cccnc2)C1)c1ccccc1OC (single isomer, unassigned) [Example 35, levorotatory enantiomer of (3aRS,4SR,9SR,9aRS)-9-(2,3-dihydro-1,4-benzodioxin-6-yl)-4,9-ethano-2-[2-(2-methoxyphenyl)propenoyl]-2,3,3a,4,9,9a-hexahydro-1H-benzo[f]isoindole-3a-N-(3-pyridylmethyl)carboxamide]
< 20 nM	C=C(C(=O)N1C[C@@H]2[C@]3(c4ccc5c(c4)CCO5)CC[C@@H](c4ccccc43)[C@]2(C(=O)NCc2cccnc2)C1)c1ccccc1OC (relative stereo) [Example 63, (3aRS,4SR,9SR,9aRS)-9-(2,3-dihydrobenzofuran-5-yl)-4,9-ethano-2-[2-(2-methoxyphenyl)propenoyl]-2,3,3a,4,9,9a-hexahydro-1H-benzo[f]isoindole-3a-N-(3-pyridylmethyl)carboxamide]
8 nM	C=C(C(=O)N1C[C@H]2[C@@]3(c4ccc(OC)cc4)CC[C@H](c4ccccc43)[C@@]2(C(=O)O)C1)c1ccccc1OC (single isomer, unassigned) [Example 75, Dextrorotatory Enantiomer of (3aRS,4SR,9SR,9aRS)-4,9-ethano-9-(4-methoxyphenyl)-2-[2-(2-methoxyphenyl)propenoyl]-2,3,3a,4,9,9a-hexahydro-1H-benzo[f]isoindole-3a-carboxylic Acid]
319 nM	C=C(C(=O)N1C[C@@H]2[C@]3(c4cccc(Br)c4)CC[C@@H](c4ccccc43)[C@]2(C(=O)OC)C1)c1ccccc1OC (racemic) [Example 83, methyl (3aRS,4SR,9SR,9aRS)-9-(3-bromophenyl)-4,9-ethano-2-[2-(2-methoxyphenyl)propenoyl]-2,3,3a,4,9,9a-hexahydro-1H-benzo[f]isoindole-3a-carboxylate]
